# Marks after values point to notes of the source that are not given here.
# Legend:
# [1] = system: amnesia of rats induced by scopolamine; assay: Effects on scopolamine-induced amnesia (passive avoidance task, oral administration); type: in vivo; details: 60 min before retention trial, scopolamine hydrobromide 2 mg/kg i.p., passive avoidance latency, male Strague Dawley rats; for inhibition in vivo at 0.01 mg/kg / inhibition in vivo at 1 mg/kg: Rattus norvegicus, po, read-out: Inhibitory rate (%); for inhibition in vivo at 0.01 mg/kg / Inhibitory rate (%): 0.01 mg/kg p.o.; for inhibition in vivo at 1 mg/kg: 1 mg/kg p.o.
# Text: Male rats of the Strague Dawley strain at 8 weeks of age (260±2 g body weight) were used for evaluation through passive avoidance task. The apparatus of passive avoidance task comprises illuminated and dark chambers which are separated from each other by a wall with a door. Floors are constituted by grids made of stainless steel; only the grid in the dark chamber is furnished with wiring for electrification.
# Effected on the first and second days of testing was preparative training; each rat was placed in the illuminated chamber and left for 3 minutes to habituate to the apparatus. On the third day of testing, the rats were individually placed in the illuminated chamber and after entering the dark chamber, the door was closed and the floor grid was electrified to deliver electric shock (100 V, 0.4 mA, a period of 0.8 sec). In order to induce amnesia, scopolamine hydrobromide (2 mg/kg) was intraperitoneally injected 20 minutes before the electric shock was delivered. Retention in memory on the electric shock was tested 24 hours later; more specifically, retention in passive avoidance trial was measured in terms of a time interval (latency) from placement of each rat in the illuminated chamber to its entry into the dark chamber. The latency over 300 seconds was recorded as 300 seconds. Respective test compounds were suspended in an aqueous solution of 1% carboxymethyl cellulose and orally administered at a dose of 0.01 or 1 mg/kg 60 minutes before the trial.
# Antiamnesic effects of the test compounds were evaluated by inhibitory rate (%) which is calculated by the following formula: [formula]
# wherein T stands for latency and SC stands for administration of scopolamine hydrobromide. Experimental results are shown in the following table in which, as to each of the test compounds, only the dose showing higher inhibitory rate was indicated.
compound,measurement,setting,value
"CN(C)c1ccc(CC2(Cc3ccc(N(C)C)cc3)C(=O)N=C3C=CC=CN32)cc1 [Compound 17, 3,3-bis(4-Dimethylaminobenzyl)imidazo[1,2-a]pyridin-2(3H)-one]",inhibition in vivo at 0.01 mg/kg,[1],33.1%
same,melting point,,> 300 °C
"COc1cc2c(cc1OC)C(=O)C(CC1CCN(Cc3ccccc3)CC1)C2 (racemic) [Compound C, (R,S)-1-benzyl-4-(5,6-dimethoxy-1-indanon-2-yl)-methylpiperidine, reference compound]",inhibition in vivo at 0.01 mg/kg,[1],12.5%
same,inhibition in vivo at 1 mg/kg,[1],24.7%
"O=C1N=C2C(OC3CCCC3)=CC=CN2C1(Cc1ccccc1)Cc1ccccc1 [Compound 11, 3,3-Dibenzyl-8-cyclopentyloxyimidazo[1,2-a]pyridin-2(3H)-one]",inhibition in vivo at 1 mg/kg,[1],48%
same,melting point,,268 to 269 °C
"O=C1N=C2C(OCC3CC3)=CC=CN2C1(Cc1ccccc1)Cc1ccccc1 [Compound 3, 3,3-Dibenzyl-8-cyclopropylmethyloxyimidazo[1,2-a]-pyridin-2(3H)-one]",inhibition in vivo at 1 mg/kg,[1],47.4%
same,melting point,,236 to 237 °C
"O=C1N=C2C=CC=CN2C12Cc1cccc3cccc(c13)C2 [Compound 27, Spiro[imidazo[1,2-a]pyridin-2(3H)-one-3,2′-[2,3]dihydrophenalene]]",Inhibitory rate (%),[1],60.7* %
"O=C1N=C2C=CC(Cl)=CN2C1(Cc1ccccc1)Cc1ccccc1 [Compound 4, 3,3-Dibenzyl-6-chloroimidazo[1,2-a]pyridin-2(3H)-one]",inhibition in vivo at 1 mg/kg,[1],58.5%
same,melting point,,246 to 248 °C
"O=C1N=C2C=CC=CN2C12Cc1ccccc1C2 [Compound 24, Spiro[imidazo[1,2-a]pyridin-2(3H)-one-3,2′-indan]]",Inhibitory rate (%),[1],56.8** %
"O=C1N=C2C(NCc3ccccc3)=CC=CN2C1(Cc1ccccc1)Cc1ccccc1 [Compound 37, 3,3-Dibenzyl-8-benzylaminoimidazo[1,2-a]pyridin-2(3H)-one]",inhibition in vivo at 0.01 mg/kg,[1],56%
same,melting point,,250 °C
"O=C1N=C2C=CC=CN2C1(CCCc1ccccc1)CCCc1ccccc1 [Compound 26, 3,3-bis(3-Phenyl-1-propyl)imidazo[1,2-a]pyridin-2(3H)-one]",inhibition in vivo at 0.01 mg/kg,[1],53.5%
same,melting point,,227 to 228 °C
"CC(C)OC1=CC=CN2C1=NC(=O)C2(Cc1ccccc1)Cc1ccccc1 [Compound 1, 3,3-Dibenzyl-8-isopropoxyimidazo[1,2-a]-pyridin-2(3H)-one]",inhibition in vivo at 1 mg/kg,[1],50.4%
same,melting point,,247 to 248 °C
"O=C1N=C2C=CC=CN2C1(Cc1ccc(F)cc1F)Cc1ccc(F)cc1F [Compound 28, 3,3-bis(2,4-Difluorobenzyl)imidazo[1,2-a]pyridin-2(3H)-one]",inhibition in vivo at 0.01 mg/kg,[1],62.7%
same,melting point,,269 to 271 °C
"O=C1N=C2C=CC=CN2C1(Cc1ccc(-c2ccccc2)cc1)Cc1ccc(-c2ccccc2)cc1 [Compound 20, 3,3-bis(4-Biphenylmethyl)imidazo[1,2-a]pyridin-2(3H)-one]",Inhibitory rate (%),[1],30.2* %
"O=C1N=C2C=CC=CN2C1(Cc1cccs1)Cc1cccs1 [Compound 30, 3,3-bis(2-Thienylmethyl)imidazo[1,2-a]pyridin-2(3H)-one]",inhibition in vivo at 0.01 mg/kg,[1],79.5%
same,melting point,,289.5 °C (dec.)
"NC1=CC=CN2C1=NC(=O)C2(Cc1ccccc1)Cc1ccccc1 [Compound 41, 8-Amino-3,3-dibenzylimidazo[1,2-a]pyridin-2(3H)-one]",inhibition in vivo at 0.01 mg/kg,[1],30%
same,melting point,,283 to 285 °C
"CCCC1(CCC)C(=O)N=C2C=CC=CN21 [Compound 29, 3,3-Dipropylimidazo[1,2-a]pyridin-2(3H)-one]",inhibition in vivo at 1 mg/kg,[1],115%
same,melting point,,73 to 75 °C
"CC(=O)NC1=CC=CN2C1=NC(=O)C2(Cc1ccccc1)Cc1ccccc1 [Compound 31, 8-Acetylamino-3,3-dibenzylimidazo[1,2-a]pyridin-2(3H)-one]",inhibition in vivo at 1 mg/kg,[1],60.4%
same,melting point,,235 to 237 °C
"CC1=CC2=NC(=O)C(Cc3ccccc3)(Cc3ccccc3)N2C(C)=C1 [Compound 9, 3,3-Dibenzyl-5,7-dimethylimidazo[1,2-a]pyridin-2(3H)-one]",inhibition in vivo at 1 mg/kg,[1],66.4%
same,melting point,,237 to 238 °C
"O=C1N=C2C=CC=CN2C1(Cc1ccco1)Cc1ccco1 [Compound 32, 3,3-bis(2-Furylmethyl)imidazo[1,2-a]pyridin-2(3H)-one]",inhibition in vivo at 0.01 mg/kg,[1],77.4%
same,melting point,,205 °C (dec.)
"O=C(O)c1ccc(CC2(Cc3ccc(C(=O)O)cc3)C(=O)N=C3C=CC=CN32)cc1 [Compound 40, 3,3-bis(4-Carboxybenzyl)imidazo[1,2-a]pyridin-2(3H)-one]",inhibition in vivo at 1 mg/kg,[1],40.7%
same,melting point,,> 300 °C
"O=C1N(c2ccccc2)c2ccccc2C1(Cc1ccncc1)Cc1ccncc1 [Compound A, 3,3-bis(4-pyridylmethyl)-1-phenylindolin-2-one, reference compound]",inhibition in vivo at 0.01 mg/kg,[1],8.8%
same,inhibition in vivo at 1 mg/kg,[1],20.9%
"Nc1c2c(nc3ccccc13)CCCC2 [Compound B, 9-amino-1,2,3,4-tetrahydro-acridine, reference compound]",inhibition in vivo at 0.01 mg/kg,[1],24.1%
same,inhibition in vivo at 1 mg/kg,[1],54.9%
"O=C1N=C2C(Cl)=CC(C(F)(F)F)=CN2C1(Cc1ccccc1)Cc1ccccc1 [Compound 13, 3,3-Dibenzyl-8-chloro-6-trifluoromethylimidazo[1,2-a]pyridin-2(3H)-one]",inhibition in vivo at 0.01 mg/kg,[1],57%
same,melting point,,234 to 236 °C
"O=C1N=C2C(Cl)=CC(Cl)=CN2C1(Cc1ccccc1)Cc1ccccc1 [Compound 12, 3,3-Dibenzyl-6,8-dichloroimidazo[1,2-a]pyridin-2(3H)-one]",melting point,,260 to 261 °C
"N#Cc1ccc(CC2(Cc3ccc(C#N)cc3)C(=O)N=C3C=CC=CN32)cc1 [Compound 21, 3,3-bis(4-Cyanobenzyl)imidazo[1,2-a]pyridin-2(3H)-one]",inhibition in vivo at 0.01 mg/kg,[1],58%
same,melting point,,294 °C (dec.)
"COc1ccc(CC2(Cc3ccc(OC)cc3)C(=O)N=C3C=CC=CN32)cc1 [Compound 19, 3,3-bis(4-Methoxybenzyl)imidazo[1,2-a]pyridin-2(3H)-one]",inhibition in vivo at 1 mg/kg,[1],64.3%
same,melting point,,248 to 251 °C
"C=CCOC1=CC=CN2C1=NC(=O)C2(Cc1ccccc1)Cc1ccccc1 [Compound 5, 8-Allyloxy-3,3-dibenzylimidazo[1,2-a]pyridin-2(3H)-one]",inhibition in vivo at 1 mg/kg,[1],34.8%
same,melting point,,214 to 215 °C
"C=CCC1(CC=C)C(=O)N=C2C=CC=CN21 [Compound 23, 3,3-Diallylimidazo[1,2-a]pyridin-2(3H)-one]",inhibition in vivo at 0.01 mg/kg,[1],53.6%
same,melting point,,64 to 66 °C
"C#CCC1(CC#C)C(=O)N=C2C=CC=CN21 [Compound 35, 3,3-di(2-Propynyl)imidazo[1,2-a]pyridin-2(3H)-one]",inhibition in vivo at 0.01 mg/kg,[1],30.3%
same,melting point,,172 to 175 °C
"CC1(C)C(=O)N=C2C=CC=CN21 [Compound 33, 3,3-Dimethylimidazo[1,2-a]pyridin-2(3H)-one]",melting point,,200 to 202 °C
"O=C1N=C2C=CC=CN2C1(Cc1ccccc1)Cc1ccc(F)cc1 (stereo not drawn) [Compound 39, 3-Benzyl-3-(4-fluorobenzyl)imidazo[1,2-a]pyridin-2(3H)-one]",inhibition in vivo at 0.01 mg/kg,[1],43.7%
same,melting point,,> 300 °C
"CC(c1ccccc1)C1(C(C)c2ccccc2)C(=O)N=C2C(OCc3ccccc3)=CC=CN21 (stereo not drawn) [Compound 7, 8-Benzyloxy-3,3-bis(1-phenylethyl)imidazo[1,2-a]-pyridin-2(3H)-one]",melting point,,234 to 235 °C
"C=CCC1(CC=C)C(=O)N=C2C(OCc3ccccc3)=CC=CN21 [Compound 25, 3,3-Diallyl-8-benzyloxyimidazo[1,2-a]pyridin-2(3H)-one]",melting point,,160 to 162 °C
"O=C1N=C2C=CC=CN2C1(Cc1ccc(F)cc1)Cc1ccc(F)cc1 [Compound 16, 3,3-bis(4-Fluorobenzyl)imidazo[1,2-a]pyridin-2(3H)-one]",inhibition in vivo at 0.01 mg/kg,[1],55.4%
same,melting point,,290 to 292 °C
"O=C1N=C2C(O)=CC=CN2C1(Cc1ccccc1)Cc1ccccc1 [Compound 36, 3,3-Dibenzyl-8-hydroxyimidazo[1,2-a]pyridin-2(3H)-one]",inhibition in vivo at 0.01 mg/kg,[1],30%
same,melting point,,283 to 285 °C
"O=C1N=C2C=CC=CN2C1(Cc1ccc([N+](=O)[O-])cc1)Cc1ccc([N+](=O)[O-])cc1 [Compound 38, 3,3-bis(4-Nitrobenzyl)imidazo[1,2-a]pyridin-2(3H)-one]",inhibition in vivo at 1 mg/kg,[1],58.5%
same,melting point,,> 300 °C
"CCCCC1(CCCC)C(=O)N=C2C=CC=CN21 [Compound 34, 3,3-Dibutylimidazo[1,2-a]pyridin-2(3H)-one]",inhibition in vivo at 0.01 mg/kg,[1],59.6%
same,melting point,,100.5 to 102 °C
"CC1=CC=CN2C1=NC(=O)C2(Cc1ccncc1)Cc1ccncc1 [Compound 15, 8-Methyl-3,3-bis(4-pyridylmethyl)imidazo[1,2-a]-pyridin-2(3H)-one]",melting point,,228 to 230 °C
